Measured values reported in patent EP4782431A1 (Suzhou Merna Therapeutics Co. Ltd, priority 2023, dated 2025).

How the values were obtained:
[1] = test system: THP-1 cells; test: m6A methylation level of THP-1 cells (LC-MS); format: cell-based; details: 24 hours
Method: 1*10^8 THP-1 cells were seeded in culture dishes, into which 4 nM and 400 nM compound of formula (I), 4 nM and 4 µM nicotinamide, and 5 µM m6A methyltransferase inhibitor UZH2 were added, respectively. The cells were cultured in an incubator containing 5% CO2 at 37°C for 24 hours. After discarding culture media and washing with PBS, the cells were centrifuged, and the supernatant was discarded. 400 µL of an RLT cell lysis buffer was added, and the cells were stored at -80°C. A portion of samples were selected, into which 400 µL of 70% ethanol was added and evenly stirred. 700 µL of a sample was transferred to an RNeasy centrifugation column and centrifuged for 15 seconds (8,000 g, 25°C). Then, 700 µL of an RW1 buffer solution was added and centrifuged for 15 seconds (8,000 g, 25°C), followed by the addition of 500 µL of an RPE buffer solution and centrifugation for 16 seconds (8,000 g, 25°C). The above steps were repeated twice, followed by centrifugation for 2 minutes to completely remove the eluent. 30 µL of nuclease-free water was added to a chromatographic column, and the cells were incubated for 5 minutes and then centrifuged for 2 minutes (12,000 g, 25°C). The steps were repeated 3 times. 2 µL of an RNA sample was selected and dissolved in 98 µL of a 10 mM Tris buffer solution, and the absorbance at 260 nm was measured using a Nanodrop to determine the RNA concentration.
50 µg of total RNA was selected and dissolved in 100 µL of nuclease-free water. Oligo (dT) magnetic beads were resuspended, 50 µL of the magnetic beads were transferred to a 1.5 mL test tube, 500 µL of a binding buffer solution was added, the mixture was allowed to stand, and the supernatant was removed. 100 µL of an RNA sample was added to 200 µL of a magnetic bead suspension for mixing, the mixture was stirred and incubated in a Thermomixer at 25°C for 5 minutes, the supernatant was discarded, and then 200 µL of a washing buffer solution was added. The steps were repeated 2 times, and then centrifugation was performed for 10 seconds (2,000 g, 25°C). 50 µL of an elution buffer solution was added and evenly mixed, the mixture was heated to 75°C, the supernatant was transferred to a new 1.5 mL test tube and purified using an RNA Clean & Concentrator kit, and the RNA concentration was determined.
20 µL (approximately 200 ng) of an mRNA sample and 20 µL of a Nuclease P1 digestion premix (including 0.5 µL of 2 unit/µL Nuclease P1, 0.4 µL of 5 M NaCl, 2 µL of 0.1 M ZnCl2, and 17.1 µL of PCR-grade water) were added into each test tube, and the mixture was stirred and incubated in a Thermomixer at 37°C for 2 hours. […] 20 µL of the supernatant was collected, an m6A methylation fragment was analyzed by LC-MS, and the m6A inhibition rate was calculated. […]

[2] = test system: HaCaT cells; test: m6A methylation level of human keratinocytes (EpiQuik m6A RNA methylation quantification kit); format: cell-based; details: for m6A fold change: 24 hours
Method: HaCaT cells were cultured in DMEM culture medium containing 10% fetal bovine serum, 100 U/mL penicillin, and 100 µg/mL streptomycin. Culture dishes were placed in an incubator containing 5% CO2 for culture at 37°C for 24 hours. An equal volume of DMSO was added in control group 1, 50 nM sorafenib, capecitabine, docetaxel, and osimertinib were respectively added in control groups A, B, C, and D, and 400 nM test compounds or nicotinamide were respectively added in sample groups A1, A2, B1, B2, C1, C2, D1, and D2 after the addition of 50 nM corresponding compounds. The cells were continuously cultured for 24 hours, washed with PBS, and then collected by high-speed centrifugation. Total RNA was extracted using Trizol reagent (Sigma Aldrich), and RNA m6A methylation of a sample was quantitatively detected using an EpiQuik m6A RNA methylation quantification kit. The concentrations of positive control samples for a standard curve were 0.01 ng/µl, 0.02 ng/µl, 0.05 ng/µl, 0.1 ng/µl, 0.2 ng/µl, and 0.5 ng/µl. The absorbance at 450 nm was read using a microplate reader (Tecan GENios). A quantitative calculation formula for m6A is as follows: m6A(ng) = (absorbanceofsamplewell−absorbanceofbackroundwell)/slope of standard curve [formula] m6A(%) = m6A(ng)/RNA amount of sample(ng)*100%. [formula]

[3] = test system: HaCaT cells; test: m6A methylation level of drug-treated HaCaT keratinocytes by nanopore sequencing; format: cell-based, human; details: 50 nM drug, 24 hours, vs blank control group
Method: 1*10^8 HaCaT cells were seeded in culture dishes, into which 50 nM drugs (including sorafenib, capecitabine, docetaxel, and osimertinib) were added, respectively. The cells were cultured in an incubator containing 5% CO2 at 37°C for 24 hours and washed with PBS after culture media were removed. Centrifugation was performed, the supernatant was discarded, and then, 400 µL of an RLT cell lysis buffer (QIAGEN, Cat.#79216) was added. A portion of samples were selected, into which 400 µL of 70% ethanol was added. The mixture was evenly stirred and then transferred to an RNeasy mini column, and RNA was extracted using an RNeasy mini kit (QIAGEN, Cat.#74104). 2 µL of an RNA sample was selected and dissolved in 98 µL of a 10 mM Tris-HCl buffer solution, and the absorbance at 260 nm was measured using a Nanodrop (Thermo Fisher Scientific) to determine the RNA concentration.
40 µg of an RNA sample was selected for enrichment of mRNA (PolyA+RNA) using an NEBNext Poly(A) mRNA magnetic isolation module (NEB, Cat.#E7490), and then, a 3' end of the above enriched mRNA (PolyA+RNA) molecule was ligated with reverse transcription adapter RTA using a direct RNA sequencing kit (Oxford Nanopore Technologies, Cat.#SQK-RNA002). A reverse transcription reaction was performed with the mRNA (PolyA+RNA) molecule as a template to synthesize a complementary strand, a terminal end of the reverse transcription adapter RTA was ligated with a sequencing adapter (RNA adapter) to form a final sequencing library, and quantitative detection was performed using a Qubit™ dsDNA HS assay kit (Invitrogen, Cat.#LOT2133187).
After quality inspection of the library, the prepared sequencing library was loaded onto a PromethION flow cell chip (Oxford Nanopore Technologies, Cat.#FLO-MIN106D), and placed in a PromethION sequencer (Oxford Nanopore Technologies) for sequencing by selecting a matched sequencing mode. Basecalling was performed on sequencing data through guppy, and m6A methylation analysis was performed on original fast5 data.

[4] = 400 nM after 50 nM capecitabine, relative to control group 1
[5] = 400 nM after 50 nM docetaxel, relative to control group 1
[6] = 400 nM after 50 nM osimertinib, relative to control group 1
[7] = 400 nM after 50 nM sorafenib, relative to control group 1
[8] = 50 nM drug alone, relative to control group 1 (DMSO)

| Compound | inhibitory effect on the m6A methylation level of mRNA of the cells ([1]; high concentration (4 µM)) | inhibitory effect on the m6A methylation level of mRNA of the cells ([1]; low concentration (4 nM)) | m6A fold change [2, 4] | m6A fold change [2, 5] | m6A fold change [2, 6] | m6A fold change [2, 7] | m6A fold change [2, 8] | m6A methylation levels of HaCaT cells higher than that of the control group [3] | m6A methylation level of mRNA of the cells ([1]; 4 nM and 400 nM, concentration-dependent) | m6A inhibition activity ([1]; 400 nM) | abnormal increase in the RNA m6A level of human keratinocytes caused by chemotherapeutic drugs and multikinase inhibitors ([2]; 400 nM) |
| --- | --- | --- | --- | --- | --- | --- | --- | --- | --- | --- | --- |
| NC(=O)c1cccnc1 [Nicotinamide, nicotinamide] | no inhibitory effect | no inhibitory effect | 4.5 fold | 5.4 fold | 5.0 fold | 4.7 fold |  |  |  |  |  |
| C=CC(=O)Nc1cc(Nc2nccc(-c3cn(C)c4ccccc34)n2)c(OC)cc1N(C)CCN(C)C [Osimertinib, osimertinib] |  |  |  |  |  |  | 4.8 fold | 5.13 fold |  |  |  |
| NC(=O)[C@H]1CCCc2c1[nH]c1ccc(Cl)cc21 [Compound of formula (I), (S)-6-chloro-2,3,4,9-tetrahydro-1H-carbazole-carboxamide] |  |  | 1.1 fold | 1.0 fold | 1.2 fold | 1.4 fold |  |  | significantly inhibit | comparable to that of the m6A methyltransferase inhibitor UZH2 at a concentration of 5 µM | effectively inhibit |
| CNC(=O)c1cc(Oc2ccc(NC(=O)Nc3ccc(Cl)c(C(F)(F)F)c3)cc2)ccn1 [Sorafenib, sorafenib] |  |  |  |  |  |  | 4.5 fold | 5.05 fold |  |  |  |
